According to US8513423B2 (Janssen Pharmaceutica, NV, priority 2010, dated 2013):
Changes are numbered by the printed parent chain. Read-outs that look alike come from different tables or passages of the source.

What was measured:
[1] = biological target: T1, purified wild type MGL (wt-MGLL 6H-11-313) (Homo sapiens, UniProt Q99685); test: MGL enzyme activity assay (4MU-B cleavage), wild type MGL; format: biochemical; details: 10 μM 4MU-B, 5 nM enzyme, 37° C., read-out: MGL wild type inh IC50
T1 construct: purified wild type MGL (wt-MGLL 6H-11-313)
T1 sequence (Q99685 1-303): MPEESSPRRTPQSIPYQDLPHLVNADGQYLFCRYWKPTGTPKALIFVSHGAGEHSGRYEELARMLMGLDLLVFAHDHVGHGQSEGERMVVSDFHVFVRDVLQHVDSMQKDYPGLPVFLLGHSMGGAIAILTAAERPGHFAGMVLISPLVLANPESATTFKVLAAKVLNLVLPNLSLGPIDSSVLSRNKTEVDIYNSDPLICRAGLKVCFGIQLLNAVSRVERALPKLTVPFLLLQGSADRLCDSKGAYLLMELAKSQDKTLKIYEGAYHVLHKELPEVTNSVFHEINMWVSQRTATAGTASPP
In short: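 Enzyme (5 nM final) cleaved 4MU-B (10 μM final) in 20 mM PIPES pH 7.0 with 150 mM NaCl and 0.001% Tween 20. Compounds were tested at 17 to 0.0003 μM final. Fluorescence (ex 335/em 440 nm) was monitored at 37° C for 5 min, and IC50 was fitted from fractional activity versus inhibitor concentration.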

MGL = biological target: T2, MGL (Rattus norvegicus, UniProt Q8R431); test: 2-AG accumulation assay in rat brain homogenate; format: biochemical; details: compound @1 μM, read-out: Rat Brain 2AG % VehCntrl (%) @1 μM
T2 construct: one g rat brain was homogenized; from tissue; host or cells: rat brain homogenate
T2 sequence (Q8R431 1-303): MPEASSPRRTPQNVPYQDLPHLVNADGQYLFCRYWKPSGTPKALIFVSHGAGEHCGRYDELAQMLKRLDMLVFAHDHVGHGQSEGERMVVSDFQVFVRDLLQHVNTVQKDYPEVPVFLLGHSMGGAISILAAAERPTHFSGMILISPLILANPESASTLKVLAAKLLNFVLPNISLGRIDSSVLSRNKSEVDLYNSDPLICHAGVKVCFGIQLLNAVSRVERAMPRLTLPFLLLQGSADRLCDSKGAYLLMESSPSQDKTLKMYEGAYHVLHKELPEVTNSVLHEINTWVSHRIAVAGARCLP
Experimental: After a 15-min incubation time at 37° C., CaCl2 (final concentration=10 mM) was added and then incubated for 15 min at 37° C. in a total volume of 5 mL. The reactions were stopped with 6 mL organic solvent extraction solution of 2:1 chloroform/methanol. Accumulated 2-AG in the organic phase was measured by a HPLC/MS method, according to the following equation: percent vehicle=(2-AG accumulation in the presence of compound/2-AG accumulation in vehicle)×100.

mutant MGL = biological target: T3, mutant MGL (Homo sapiens, UniProt Q99685, L169S/L176S); test: MGL ThermoFluor assay - mutant; format: binding
T3 construct: purified mutant MGL (mut-MGLL 11-313 L179S L186S)
T3 sequence (Q99685 1-303 L169S/L176S): T1 sequence (Q99685 1-303) with L169S, L176S
In short: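 Thermal shift binding with 0.07 mg/ml L169S/L176S MGL, 100 μM 1,8-ANS, 200 mM NaCl, 0.001% Tween-20, 50 mM PIPES pH 7.0. Heated 40–90 °C at 1 °C/min, fluorescence (em 500 nm) tracked to give Tm; Kd fitted from 11-point concentration–Tm response, qKd when stocks quantified by qNMR.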

[2] = 0.07 mg/ml mutant MGL, pH=7.0, read-out: MGL mutant ThermoFluor Kd
[3] = compound concentration measured by qNMR, read-out: MGL mutant ThermoFluor qKd (using qNMR conc.)

Row | SMILES | IC50 [1] [nM] | 2-AG accumulation, percent of vehicle control at 1 µM (MGL) [%] | Kd (mutant MGL; [2]) [nM] | Kd (mutant MGL; [3]) [nM]
1 | O=C(c1ccc(-c2ccc(C(F)(F)F)s2)cc1)N1CCC(C2CN(C(=O)c3ccc[nH]3)C2)CC1 [Cpd 56, 4-[1-(1H-Pyrrol-2-ylcarbonyl)azetidin-3-yl]-1-({4-[5-(trifluoromethyl)thiophen-2-yl]phenyl}carbonyl)piperidine] | < 5 | 285 | 5.5 | 3.3
2 | O=C(c1ccc(Cc2ccc(C(F)(F)F)cc2)cc1)N1CCC(C2CN(C(=O)c3nccs3)C2)CC1 [Cpd 63, 4-[1-(1,3-Thiazol-2-ylcarbonyl)azetidin-3-yl]-1-({4-[4-(trifluoromethyl)benzyl]phenyl}carbonyl)piperidine] | < 5 | 435 | – | 17.4
3 | O=C(c1ccc(-c2ccc(C(F)(F)F)s2)cc1)N1CCC(C2CN(C(=O)c3nccs3)C2)CC1 [Cpd 54, 4-[1-(1,3-Thiazol-2-ylcarbonyl)azetidin-3-yl]-1-({4-[5-(trifluoromethyl)thiophen-2-yl]phenyl}carbonyl)piperidine] | < 5 | 736 | – | 1.8
4 | O=C(c1ccc(Cc2ccc(C(F)(F)F)cc2)cc1)N1CC(C2CCN(C(=O)c3cscn3)CC2)C1 [Cpd 33, 1-(1,3-Thiazol-4-ylcarbonyl)-4-[1-({4-[4-(trifluoromethyl)benzyl]phenyl}carbonyl)azetidin-3-yl]piperidine] | < 5 | 696 | 62.6 | –
5 | O=C(c1ccc2c(ccn2-c2ccc(F)cc2)c1)N1CC(C2CCN(C(=O)c3ccc[nH]3)CC2)C1 [Cpd 42, 1-(4-Fluorophenyl)-5-({3-[1-(1H-pyrrol-2-ylcarbonyl)piperidin-4-yl]azetidin-1-yl}carbonyl)-1H-indole] | < 5 | 498 | – | 24.5
6 | O=C(c1ccc[nH]1)N1CC(C2CCN(C(=O)c3sc4cc(C(F)(F)F)ccc4c3Cl)CC2)C1 [Cpd 71, 1-{[3-Chloro-6-(trifluoromethyl)-1-benzothiophen-2-yl]carbonyl}-4-[1-(1H-pyrrol-2-ylcarbonyl)azetidin-3-yl]piperidine] | 12 | 552 | – | 1.2
7 | O=C(c1ccc(-c2cccc(C(F)(F)F)c2)cc1)N1CC(C2CCN(C(=O)c3nccs3)CC2)C1 [Cpd 16, 1-(1,3-Thiazol-2-ylcarbonyl)-4-(1-{[3′-(trifluoromethyl)biphenyl-4-yl]carbonyl}azetidin-3-yl)piperidine] | 7 | 493 | 2 | –
8 | Cc1c(C(=O)N2CCC(C3CN(C(=O)c4nccs4)C3)CC2)sc2cc(C(F)(F)F)ccc12 [Cpd 60, 1-{[3-Methyl-6-(trifluoromethyl)-1-benzothiophen-2-yl]carbonyl}-4-[1-(1,3-thiazol-2-ylcarbonyl)azetidin-3-yl]piperidine] | 10 | 508 | 0.8 | 0.5
9 | O=C(c1ccc2nc(-c3ccccc3)oc2c1)N1CC(C2CCN(C(=O)c3ccc[nH]3)CC2)C1 [Cpd 40, 2-Phenyl-6-({3-[1-(1H-pyrrol-2-ylcarbonyl)piperidin-4-yl]azetidin-1-yl}carbonyl)-1,3-benzoxazole] | 9 | 361 | – | 94.6
10 | O=C(c1ccc2c(ccn2-c2ccc(F)c(F)c2)c1)N1CC(C2CCN(C(=O)c3ccc[nH]3)CC2)C1 [Cpd 44] | < 5 | 107 | – | 21.3
11 | Cc1c(C(=O)N2CCC(C3CN(C(=O)c4ccc[nH]4)C3)CC2)sc2cc(C(F)(F)F)ccc12 [Cpd 62] | < 5 | 422 | 1.3 | 0.6
12 | O=C(c1ccc(Cc2ccc(C(F)(F)F)cc2)cc1)N1CCC(C2CN(C(=O)c3cscn3)C2)CC1 [Cpd 64, 4-[1-(1,3-Thiazol-4-ylcarbonyl)azetidin-3-yl]-1-({4-[4-(trifluoromethyl)benzyl]phenyl}carbonyl)piperidine] | < 5 | 383 | – | 18.9
13 | O=C(c1ccc(-c2ccc(C(F)(F)F)s2)cc1)N1CC(C2CCN(C(=O)c3cscn3)CC2)C1 [Cpd 12, 1-(1,3-Thiazol-4-ylcarbonyl)-4-[1-({4-[5-(trifluoromethyl)thiophen-2-yl]phenyl}carbonyl)azetidin-3-yl]piperidine] | 10 | 134 | 22 | –
14 | O=C(c1ccc2c(ccn2-c2ccc(F)c(F)c2)c1)N1CCC(C2CN(C(=O)c3cscn3)C2)CC1 [Cpd 79, 1-(3,4-Difluorophenyl)-5-({4-[1-(1,3-thiazol-4-ylcarbonyl)azetidin-3-yl]piperidin-1-yl}carbonyl)-1H-indole] | 9 | 946 | – | 3.3
15 | Cc1c(C(=O)N2CC(C3CCN(C(=O)c4ccc[nH]4)CC3)C2)sc2cc(C(F)(F)F)ccc12 [Cpd 26, 4-(1-{[3-Methyl-6-(trifluoromethyl)-1-benzothiophen-2-yl]carbonyl}azetidin-3-yl)-1-(1H-pyrrol-2-ylcarbonyl)piperidine] | < 5 | 303 | 3.6 | –
16 | O=C(c1ccc2c(ccn2-c2ccc(F)cc2)c1)N1CCC(C2CN(C(=O)c3nccs3)C2)CC1 [Cpd 72, 1-(4-Fluorophenyl)-5-({4-[1-(1,3-thiazol-2-ylcarbonyl)azetidin-3-yl]piperidin-1-yl}carbonyl)-1H-indole] | 17 | 657 | – | 2.7
17 | O=C(c1ccc(-c2ccc(C(F)(F)F)s2)cc1)N1CCC(C2CN(C(=O)c3cscn3)C2)CC1 [Cpd 55, 4-[1-(1,3-Thiazol-4-ylcarbonyl)azetidin-3-yl]-1-({4-[5-(trifluoromethyl)thiophen-2-yl]phenyl}carbonyl)piperidine] | 13 | 733 | – | 2
18 | O=C(c1nccs1)N1CC(C2CCN(C(=O)c3ccc(-c4ccccc4)cc3F)CC2)C1 [Cpd 45] | < 5 | 385 | – | 12.2
19 | O=C(c1ccc2nc(-c3ccccc3)oc2c1)N1CC(C2CCN(C(=O)c3cscn3)CC2)C1 [Cpd 34, 2-Phenyl-6-({3-[1-(1,3-thiazol-4-ylcarbonyl)piperidin-4-yl]azetidin-l-yl}carbonyl)-1,3-benzoxazole] | 54.4 | 517 | 198 | –
20 | O=C(c1ccc(-c2ccc(C(F)(F)F)s2)cc1)N1CC(C2CCN(C(=O)c3nccs3)CC2)C1 [Cpd 18, 1-(1,3-Thiazol-2-ylcarbonyl)-4-[1-({4-[5-(trifluoromethyl)thiophen-2-yl]phenyl}carbonyl)azetidin-3-yl]piperidine] | 12.5 | 457 | 3 | –
21 | O=C(c1cccc(-c2cccc(F)c2)c1)N1CCC(C2CN(C(=O)c3nccs3)C2)CC1 [Cpd 51, 1-[(3′-Fluorobiphenyl-3-yl)carbonyl]-4-[1-(1,3-thiazol-2-ylcarbonyl)azetidin-3-yl]piperidine] | < 5 | 266 | – | 18
